Consider four molecules from patent publication US20180220653A1, “Methods for Identifying Compounds that Directly Bind to Insect Transient Receptor Potential Channels” (priority 2015, published 2018).

Structures are written as SMILES. Read-outs that look alike come from different tables or passages of the source.

Data set [1] is described as follows: Solubility observed in competition binding assay. The conditions noted are these: at high concentrations, binding buffer.
In data set [2] the target is T1, insect TRPV channels, Nan and Iav (Drosophila melanogaster, UniProt M9PI57+Q9W3W0).
T1 sequence (M9PI57 1-834): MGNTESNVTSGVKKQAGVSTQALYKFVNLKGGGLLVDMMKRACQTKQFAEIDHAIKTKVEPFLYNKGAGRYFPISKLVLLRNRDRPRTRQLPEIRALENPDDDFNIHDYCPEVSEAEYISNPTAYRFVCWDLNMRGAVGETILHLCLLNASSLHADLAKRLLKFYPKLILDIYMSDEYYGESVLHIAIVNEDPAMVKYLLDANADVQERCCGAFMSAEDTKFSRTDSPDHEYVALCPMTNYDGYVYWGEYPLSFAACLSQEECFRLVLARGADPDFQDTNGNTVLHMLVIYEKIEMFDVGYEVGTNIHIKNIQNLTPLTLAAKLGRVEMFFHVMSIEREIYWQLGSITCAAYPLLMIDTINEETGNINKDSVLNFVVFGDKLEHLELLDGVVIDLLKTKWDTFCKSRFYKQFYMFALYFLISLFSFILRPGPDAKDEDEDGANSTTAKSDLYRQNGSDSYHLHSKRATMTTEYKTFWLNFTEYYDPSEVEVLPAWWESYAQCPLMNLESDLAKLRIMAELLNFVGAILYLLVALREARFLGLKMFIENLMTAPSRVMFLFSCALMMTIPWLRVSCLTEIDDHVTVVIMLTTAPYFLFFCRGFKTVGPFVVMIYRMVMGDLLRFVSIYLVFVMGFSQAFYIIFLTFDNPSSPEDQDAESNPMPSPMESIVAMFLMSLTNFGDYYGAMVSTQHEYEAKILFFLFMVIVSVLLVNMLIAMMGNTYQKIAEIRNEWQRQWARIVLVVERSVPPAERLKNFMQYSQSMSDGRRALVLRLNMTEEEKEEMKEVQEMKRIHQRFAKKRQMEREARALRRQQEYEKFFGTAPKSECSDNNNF
T1 sequence (Q9W3W0 1-1123): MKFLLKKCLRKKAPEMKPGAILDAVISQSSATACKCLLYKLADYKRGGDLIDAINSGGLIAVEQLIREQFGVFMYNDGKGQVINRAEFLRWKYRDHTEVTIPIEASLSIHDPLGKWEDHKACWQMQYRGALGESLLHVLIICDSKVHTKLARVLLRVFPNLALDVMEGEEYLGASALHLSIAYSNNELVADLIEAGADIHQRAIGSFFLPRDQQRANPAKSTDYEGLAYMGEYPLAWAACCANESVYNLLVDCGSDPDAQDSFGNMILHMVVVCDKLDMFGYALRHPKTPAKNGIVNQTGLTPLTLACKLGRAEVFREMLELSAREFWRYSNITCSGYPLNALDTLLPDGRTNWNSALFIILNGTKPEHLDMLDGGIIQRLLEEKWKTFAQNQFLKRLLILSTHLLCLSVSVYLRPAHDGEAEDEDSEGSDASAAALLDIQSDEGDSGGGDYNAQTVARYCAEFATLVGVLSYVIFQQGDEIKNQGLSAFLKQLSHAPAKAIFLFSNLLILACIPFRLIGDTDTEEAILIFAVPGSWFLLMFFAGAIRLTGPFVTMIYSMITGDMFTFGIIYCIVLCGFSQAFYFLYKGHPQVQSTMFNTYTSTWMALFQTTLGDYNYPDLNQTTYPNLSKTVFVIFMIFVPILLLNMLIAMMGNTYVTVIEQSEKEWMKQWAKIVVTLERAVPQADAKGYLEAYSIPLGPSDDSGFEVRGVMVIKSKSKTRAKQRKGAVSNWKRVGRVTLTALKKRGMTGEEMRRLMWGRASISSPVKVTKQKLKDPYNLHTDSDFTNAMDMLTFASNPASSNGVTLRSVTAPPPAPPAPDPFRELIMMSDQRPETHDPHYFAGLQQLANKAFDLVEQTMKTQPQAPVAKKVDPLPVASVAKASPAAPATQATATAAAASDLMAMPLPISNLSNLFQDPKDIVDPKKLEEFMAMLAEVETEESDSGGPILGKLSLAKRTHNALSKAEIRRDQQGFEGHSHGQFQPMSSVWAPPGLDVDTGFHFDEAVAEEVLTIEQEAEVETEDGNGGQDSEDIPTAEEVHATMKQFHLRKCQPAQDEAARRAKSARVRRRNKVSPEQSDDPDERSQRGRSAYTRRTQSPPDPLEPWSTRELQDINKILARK

The subject of data set [3] is Nan and Iav from pea aphid. Nature of the data set: Two-electrode voltage clamp in Xenopus laevis oocytes injected with Nan and Iav mRNA. Type of data set: cell-based, Acyrthosiphon pisum. The conditions noted are these: 10 uM dPFQ; oocytes with Nan+Iav vs Nan or Iav alone; FIG. 4a. On the technique in general: Two-electrode voltage clamp is typically applied to oocytes expressing channels or transporters.

The subject of the next data set is Nan. Type of data set: binding, Drosophila. The conditions noted are these: for displacement of [3H]-afidopyropen from Nan-only sites: Ki not accurately determined, curves did not reach bottom plateaus. For orientation: In a radioligand displacement assay an active substance lowers the binding of a labelled ligand.
Data set [4] has as its target T1, insect TRPV channels, Nan and Iav. The following applies: for EC50: read-out: half-maximal effective concentrations (EC50), calcium mobilization, CHO cells co-expressing Nan and Iav, FIG. 5. For orientation: Calcium flux is commonly read through the fluorescence of an indicator in the cells.
Data set [5] deals with mouse TRPV channel, mTRPV4 (Mus musculus, UniProt Q9EPK8). Briefly: Calcium response in CHO cells expressing mTRPV4. The conditions noted are these: CHO cells transduced with mTRPV4 adenovirus; FIG. 6. Type of data set: cell-based.
mouse TRPV channel, mTRPV4, sequence (Q9EPK8 whole entry): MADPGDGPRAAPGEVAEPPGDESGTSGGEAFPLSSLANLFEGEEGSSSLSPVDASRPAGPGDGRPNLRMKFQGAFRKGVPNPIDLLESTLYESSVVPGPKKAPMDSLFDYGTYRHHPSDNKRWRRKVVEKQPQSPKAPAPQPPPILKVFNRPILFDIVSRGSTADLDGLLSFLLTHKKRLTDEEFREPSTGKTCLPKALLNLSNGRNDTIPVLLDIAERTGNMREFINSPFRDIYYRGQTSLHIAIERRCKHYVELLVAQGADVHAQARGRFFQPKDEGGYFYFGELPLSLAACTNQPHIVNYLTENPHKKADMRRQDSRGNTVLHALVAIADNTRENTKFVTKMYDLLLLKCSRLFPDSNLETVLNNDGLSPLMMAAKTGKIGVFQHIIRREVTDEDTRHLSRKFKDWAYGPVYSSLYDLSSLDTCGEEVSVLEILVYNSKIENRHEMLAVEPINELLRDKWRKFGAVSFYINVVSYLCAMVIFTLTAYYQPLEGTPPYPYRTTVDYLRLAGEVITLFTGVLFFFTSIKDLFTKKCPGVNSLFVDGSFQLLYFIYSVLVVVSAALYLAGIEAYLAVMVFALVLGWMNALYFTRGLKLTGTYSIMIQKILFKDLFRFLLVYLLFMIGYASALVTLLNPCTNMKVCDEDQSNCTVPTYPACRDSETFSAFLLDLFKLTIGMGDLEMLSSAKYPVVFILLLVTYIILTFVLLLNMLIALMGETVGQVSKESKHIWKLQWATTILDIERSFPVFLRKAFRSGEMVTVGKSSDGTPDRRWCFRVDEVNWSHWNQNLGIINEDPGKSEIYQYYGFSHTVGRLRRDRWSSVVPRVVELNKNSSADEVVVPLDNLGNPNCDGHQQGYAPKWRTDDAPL
In data set [6] the test system is American grasshoppers (Schistocerca americana). Briefly: Leg extension assay in American grasshoppers. Type of data set: in vivo. The conditions noted are these: injection, 10 mM in 100% DMSO, 3 μl per animal; assessed 40-60 minutes post-injection. As to the method: American grasshoppers (Schistocerca americana) were obtained from Dr. Hojun Song (University of Central Florida). Test compounds (10 mM in 100% DMSO), or vehicle (100% DMSO) were applied by injection through the abdominal intersegmental cuticle (3 μl per animal), using Hamilton syringe. The effects of compounds were assessed 40-60 minutes post-injection.

Data set [7] relates to locusts (Locusta migratoria). The following applies: injection, Ausborn et al., 2005; cited from earlier work.
Data set [8] addresses T1, insect TRPV channels, Nan and Iav. Briefly: cell-based.
[9] abbreviates: Nan+Iav cells vs parental cells and cells expressing Nan or Iav alone, FIG. 4.
Setting [10] is: Nan+Iav cells vs parental cells and cells expressing Nan or Iav alone, FIG. 3.

Consider `O=C1Nc2ccc(C(F)(C(F)(F)F)C(F)(F)F)cc2CN1NCc1cccnc1` [N-deacetylated pyrifluquinazon], for which the solubility result in data set [1] is listed as “poor solubility”. In addition, in data set [2] (setting [9]), the membrane depolarization response entry is “only in cells co-infected with Nan and Iav viruses”. Also, in [3], the “inward and outward current responses” value is “evoked both inward and outward current responses only in oocytes expressing both Nan and Iav”. In the data set on Nan, the “displacement of [3H]-afidopyropen from Nan-only sites” value was “clearly displaced”. In data set [4] (setting [10]), the calcium mobilization response result was “only in cells co-infected with Nan and Iav viruses”. Besides, in data set [4], the EC50 was found to be 64 nM.

In general, Ki refers to a dissociation constant, usually derived from enzyme kinetics or from competition with a known ligand. Regarding `C[C@]1(COC(=O)C2CC2)[C@@H]2C[C@H](O)[C@@]3(C)Oc4cc(-c5cccnc5)oc(=O)c4[C@H](O)[C@@H]3[C@@]2(C)CC[C@@H]1OC(=O)C1CC1` [afidopyropen], the membrane depolarization response result in data set [2] (setting [9]) was “only in cells co-infected with Nan and Iav viruses”. For the same molecule, the Ki at Nan (Nan-only expressing membranes, FIG. 9B, read-out: Ki, displacement assay) turned out to be 3.1 nM. In addition, the “calcium response / activation of mTRPV4” value in data set [5] is recorded as “failed to activate”. In data set [4] (setting [10]), the calcium mobilization response entry is “only in cells co-infected with Nan and Iav viruses”. The EC50 in data set [4] came out at 1 nM. Moreover, the hind leg extension entry in [6] is reported as “elicited hind leg extension”.

In the case of `CC1=NNC(=O)N(/N=C/c2cccnc2)C1` [pymetrozine], in data set [1], the solubility entry was “poor solubility”. Besides, the membrane depolarization response entry in [2] is “only in cells co-infected with Nan and Iav viruses”. For the same molecule, the values for the hind leg extension result in data set [7] and in [6] were “produce characteristic hind leg extension” and “Elicit Characteristic Hind Leg Extension”, respectively. The EC50 in [8] was found to be 51 nM. In the data set on Nan, the “displacement of [3H]-afidopyropen from Nan-only sites” value is “clearly displaced”. Further, the calcium mobilization response entry in data set [4] was “only in cells co-infected with Nan and Iav viruses”.

For `CC(C)C[C@H](NC(=O)c1cc2ccccc2s1)C(=O)N1CCN(C(=O)[C@H](CO)NS(=O)(=O)c2ccc(Cl)cc2Cl)CC1` [GSK1016790A, N-((1S)-1-{[4-((2S)-2-{[(2,4-dichlorophenyl)sulfonyl]amino}-3-hydroxypropanoyl)-1-piperazinyl]carbonyl}-3-methylbutyl)-1-benzothiophene-2-carboxamide], the “calcium response / activation of mTRPV4” value in data set [5] is listed as “evoked strong calcium response”.
